Reference: the SangsterLogP compilation

O=NN(CCCl)C(=O)NCCSC1c2ccccc2Oc2ccccc21
logP: 5

Cc1cccc2c1Oc1ncccc1C2NC(=O)CN(C)C (stereo unspecified)
logP: 2.19

CCOc1ccc2c(c1)C(NC(=O)N(CCCl)N=O)c1ccccc1O2 (stereo unspecified)
logP: 4.86

Cc1cccc2c1Oc1ccccc1C2NC(=O)N(CCCl)N=O (stereo unspecified)
logP: 4.77

COc1ccc2c(c1)C(NC(=O)N(CCCl)N=O)c1ccccc1O2 (stereo unspecified)
logP: 4.48

CCN(CC)CC(=O)NC1c2ccccc2Sc2c(C)cccc21 (stereo unspecified)
logP: 4.24

Cc1ccc2c(c1)C(NC(=O)N(CCCl)N=O)c1ccccc1S2 (stereo unspecified)
logP: 5.01

O=NN(CCCl)C(=O)NCC1c2ccccc2Oc2ccccc21
logP: 4.13

CCN(CC)CC(=O)NC1c2ccccc2Oc2ccccc21
logP: 3.49

COc1cccc2c1Oc1ccccc1C2NC(=O)N(CCCl)N=O (stereo unspecified)
logP: 3.68

Cc1cccc2c1Sc1ccccc1C2NC(=O)N(CCCl)N=O (stereo unspecified)
logP: 5.03

Cc1ccc2c(c1)C(NC(=O)N(CCCl)N=O)c1ccccc1O2 (stereo unspecified)
logP: 4.65

Cc1cc(C)c2c(c1)C(NC(=O)N(CCCl)N=O)c1ccccc1O2 (stereo unspecified)
logP: 5.19

O=NN(CCCl)C(=O)NC1c2ccccc2Oc2ccccc21
logP: 4.17

O=NN(CCCl)C(=O)NC1c2ccccc2Sc2ccccc21
logP: 4.59

Cc1cccc2c1Oc1ccccc1C2NC(=O)CCN(C)C (stereo unspecified)
logP: 2.61
